Data taken from article PMC6257622, “Discovery and Structure–Activity-Relationship Study of N-Alkyl-5-hydroxypyrimidinone Carboxamides as Novel Antitubercular Agents Targeting Decaprenylphosphoryl-β-D-ribose 2′-Oxidase” (Journal of Medicinal Chemistry, 2018).
In brackets after ≈: the same amount, converted by molar mass.

How the values were obtained:
Type in all cases: cell-based, Mycobacterium tuberculosis
[1] = system: dprE12–TetON1 mutant (dprE1–dprE2 operon); conditions: removal of anhydrotetracycline; OD580nm at day 10 relative to DMSO control
[2] = system: P01-resistant mutants of Mtb H37Rv
Mtb DprE1 Y314H mutant = system: Mtb DprE1 Y314H mutant
Mtb DprE1 Y314C mutant = system: Mtb DprE1 Y314C mutant
Mtb DprE1 N364S mutant = system: Mtb DprE1 N364S mutant
Mtb DprE1 P116S mutant = system: Mtb DprE1 P116S mutant

## C[C@H]1COC2(CCN(c3nc(=O)c4cc(C(F)(F)F)cc([N+](=O)[O-])c4s3)CC2)O1 [BTZ043, reference compound]
[1]
  effect of dprE1–dprE2 transcriptional repression on susceptibility / growth inhibition: increase in susceptibility

## Cn1c(Cc2ccccc2C(F)(F)F)nc(C(=O)NCc2ccccc2)c(O)c1=O [Compound P01, N-Benzyl-5-hydroxy-1-methyl-6-oxo-2-(2-(trifluoromethyl)benzyl)-1,6-dihydropyrimidine-4-carboxamide]
[2]
  level of resistance of P01-resistant mutants compared with the parental strain: more than 10 fold
[2]; at 10× MIC on solid medium
  mutation frequency: 7 × 10^–9
Mtb DprE1 Y314H mutant
  MIC, DprE1 mutation Y314H: >50 µM
  fold change of MIC, Y314H: >16
Mtb DprE1 Y314C mutant
  MIC, DprE1 mutation Y314C: 25 µM (≈ 10.4 µg/mL)
  fold change of MIC, Y314C: 8
Mtb DprE1 N364S mutant
  MIC, DprE1 mutation N364S: 2.34 µM (≈ 0.977 µg/mL)
  fold change of MIC, N364S: 0.75
Mtb DprE1 P116S mutant
  MIC, DprE1 mutation P116S: 18.8 µM (≈ 7.85 µg/mL)
  fold change of MIC, P116S: 6
[1]
  effect of dprE1–dprE2 transcriptional repression on susceptibility / growth inhibition: more growth inhibition

## CCn1c(Cc2ccccc2C(F)(F)F)nc(C(=O)NCc2ccccc2)c(O)c1=O [Compound P04, N-Benzyl-1-ethyl-5-hydroxy-6-oxo-2-(2-(trifluoromethyl)benzyl)-1,6-dihydropyrimidine-4-carboxamide]
[1]
  effect of dprE1–dprE2 transcriptional repression on susceptibility / growth inhibition: more growth inhibition

## CC(NC(=O)c1nc(Cc2ccccc2C(F)(F)F)n(C)c(=O)c1O)c1ccccc1 (stereo not shown) [Compound P13, 5-Hydroxy-1-methyl-6-oxo-N-(1-phenylethyl)-2-(2-(trifluoromethyl)benzyl)-1,6-dihydropyrimidine-4-carboxamide]
[1]
  effect of dprE1–dprE2 transcriptional repression on susceptibility / growth inhibition: did not result in growth inhibition

## CCOC(=O)NC(=O)c1ccsc1NC(=O)c1nc2ccccc2s1 [TCA1, reference compound]
[1]
  effect of dprE1–dprE2 transcriptional repression on susceptibility / growth inhibition: increase in susceptibility

## CC[C@@H](CO)NCCN[C@@H](CC)CO [ethambutol, reference compound]
[1]
  effect of dprE1–dprE2 transcriptional repression on susceptibility / growth inhibition: equipotent efficacy
